SMILES strings stand for the structures. Values joined by “and” are separate entries in the source; they are usually repeats but may differ in a detail not shown here. Identical values can stand only once.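 All cell lines were grown in 96-well plates and treated with compound for 48 hours. At the GI50, growth is halved. TGI denotes the concentration required for complete inhibition of growth.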

Consider 15 compounds from PubChem BioAssay (NCI).

Holding throughout (assay): NCI tumour cell line growth inhibition, 48 h
For assay [1], the system named is MCF7 breast.
In assay [2] the test system is SK-MEL-2 melanoma.
For assay [3], the system named is OVCAR-5 ovarian.
The test system of assay [4] is LOX IMVI melanoma.
Assay [5] deals with SF-539 CNS.
Assay [6] relates to NCI-H226 lung.
In assay [7] the test system is MALME-3M melanoma.
Assay [8] relates to SR leukemia.
Assay [9] deals with HOP-92 NSCLC.
The subject of assay [10] is A498 renal.

Consider `O=C1C=CC(=C(c2ccccc2)c2ccc(O)cc2)C=C1`, for which the TGI was 37.1 µM in [1]; 32 µM in assay [2]; 49.7 µM in assay [3]; 17.9 µM in [4]; 30.8 µM in assay [5]; 38 µM in assay [6]. For the same compound, the TGI is 28.6 µM in [7], 40.8 µM in assay [8] and 36.1 µM in [9].
Take `CC(C)(C)C(=O)Nc1cccc2oc(-c3ccccc3)cc12`: the TGI in assay [10] was more than 100 µM; in assay [2] it was more than 100 µM; in assay [5] it was more than 100 µM; in assay [8], more than 100 µM; in assay [9], 96.4 µM.
Take `Cc1ccc(/C=C(\NC(=O)c2ccccc2)c2nc3ccccc3[nH]2)cc1`: the TGI in assay [10] is more than 100 µM; in assay [2] it was 80.1 µM; in assay [3], more than 100 µM; in assay [5] it was more than 100 µM; in [7] it was more than 100 µM; in assay [8], more than 100 µM. Moreover, in [9], the TGI was found to be 86.5 µM.
Regarding `Cc1ccc(NC(=O)CC/C(CC(=O)C(C)(C)C)=N\NC(=O)C[n+]2ccccc2)cc1C`, the TGI in assay [10], in [2], in assay [3], in assay [4], in assay [5] and in assay [6] was more than 100 µM in each case. For the same compound, the TGI in assay [7], in [8] and in assay [9] was more than 100 µM throughout.
Consider `O=C(Cc1nc2ccccc2o1)C(=O)Nc1cccc(Cl)c1`, for which the TGI in assay [10], in assay [2], in [5], in [6], in assay [7] and in [8] was more than 100 µM each time. In addition, the TGI in [9] was more than 100 µM.
For the compound `CCCCCCn1c(SC)nc(COC(=O)NC)c1COC(=O)NC`, the TGI in assay [10] is 30.8 µM; in [1], 38 µM; in assay [2] it was 49.9 µM; in assay [3], 34.6 µM; in assay [4] it was more than 100 µM; in [5], 32.4 µM. Also, the values for the TGI in [6] and in assay [8] were 33.3 µM and 71.7 µM, respectively.
As to `O=C(N/C(=C\c1cccc([N+](=O)[O-])c1)c1nc2ccccc2[nH]1)c1ccccc1`, the TGI in assay [10], in assay [2], in assay [3], in assay [5], in [6] and in assay [7] was more than 100 µM each time. The TGI in assay [8] and in assay [9] was more than 100 µM throughout.
In the case of `NS(=O)(=O)c1ccc(NC(=O)Cc2nc3ccccc3s2)cc1`, the TGI in [10] was 36.8 µM; in assay [2], 31.9 µM; in assay [3], 35.2 µM; in assay [5] it was 32.3 µM; in assay [6], 33 µM; in assay [7], 30.3 µM. Also, the TGI in assay [8] was 71 µM; in assay [9], 29.8 µM.
Regarding `CC1=NN(C(=O)Nc2ccc(Cl)cc2)C(=O)C2CCC(=O)N12` (centres undefined), the TGI in assay [10], in [2], in assay [4], in assay [5], in assay [8] and in assay [9] was more than 100 µM each time.
Consider `c1ccncc1`, for which the TGI in assay [10], in [2], in assay [3], in assay [4], in assay [5] and in assay [6] was more than 100 µM in each case. Further, the TGI in assay [7], in assay [8] and in [9] was more than 100 µM throughout.
Regarding `CCN(CC)CC(C)C(=O)/C=C/c1ccc(C)cc1` (centres undefined), the TGI in assay [10] amounted to 20.6 µM; in assay [3], 28 µM; in assay [4] it was 2.69 µM; in assay [5] it was 3.85 µM; in [6], 31.3 µM; in assay [7], 7.08 µM. Further, the TGI in assay [8] came to 8.19 µM; in [9] it was 4.84 µM.
`COc1ccc(C2CC(c3ccc(Nc4ccnc5cc(Cl)ccc45)cc3)=NN2C=O)cc1` (centres undefined): the GI50 in assay [10] is more than 100 µM; in assay [1] it was 8.78 µM; in [3] it was more than 100 µM; in assay [4], 2.32 µM; in [5] it was more than 100 µM; in [6], more than 100 µM. The GI50 in [7] is more than 100 µM; in assay [8], 2.83 µM. For the same compound, the TGI in assay [10] was more than 100 µM; in assay [1], more than 100 µM; in assay [3], more than 100 µM; in [4], 15.6 µM; in assay [5] it was more than 100 µM; in [6], more than 100 µM. In addition, the values for the TGI in assay [7] and in [8] were more than 100 µM and 6.64 µM, respectively.
Turning to `O=C(O)c1ccc(C(O)(c2ccccc2)c2ccccc2)cc1`, the TGI in assay [1], in assay [3], in assay [4], in assay [7] and in [8] was more than 100 µM throughout.
With `COC(=O)c1ccc(/C=C(\c2ccc([N+](=O)[O-])o2)S(=O)(=O)c2ccc(NC(C)=O)cc2)o1`, the TGI stood at 29.3 µM in [1]; 39.2 µM in assay [2]; 10.9 µM in assay [3]; 15.2 µM in [5]; 7.98 µM in assay [6]; 8.91 µM in [7]. The TGI in assay [8] was 4.32 µM; in assay [9] it was 24 µM.
In the case of `COCCOC1=CC(=O)c2c(O)ccc(O)c2C1=O`, the GI50 is 2.16 µM in [10]; 0.51 µM in assay [1]; 1.86 µM in [2]; 1.92 µM in assay [3]; 0.914 µM in assay [4]; 0.808 µM in assay [7]. In addition, the GI50 in assay [9] was 1.54 µM. For the same compound, the TGI in assay [10] was 3.18 µM and 3.92 µM; in [1] it was 0.933 µM and 1.92 µM; in [2] it was 2.58 µM and 3.82 µM; in assay [3], 2.96 µM and 3.46 µM; in assay [4], 2.34 µM and 2.13 µM; in assay [5] it was 3.12 µM and 3.16 µM. The TGI in [6] is 4.01 µM and 4.16 µM; in [7] it was 0.328 µM and 2.07 µM; in [9], 3.7 µM and 3.59 µM.
